# Measurements reported in EP0311724A1, “Anxiolytic-R-N-(1-azabicyclo[2.2.2]oct-3-yl) benzamides and thiobenzamides” (SYNTHELABO, priority 1987, dated 1989).
# Counter-ions that a name gives are not always drawn.
# Assays:
# [1] = tested on: mouse; assay: Exploratory behaviour of the mouse in a two-compartment box (method of Crawley and Goodwin); format: in vivo; set-up: key: +: significant increase vs. control; -: significant decrease vs. control; ns: no significant change vs. control; details: dose 0.1-10 mg/kg ip, change vs. control
# Procedure: (§1) The anxiolytic activity was determined by the method of Costall et al details of which are to be found in the pharmacology examples later in this specification. In brief, the method involves seeing whether the compound under test reduced the natural anxiety of mice in brightly-lit areas. Anxiolytic activity was also assessed by the method of Crawley and Goodwin (Pharm. Biochem. Behavior (1980), 13,167-170).
# Compounds of the invention have been studied in the laboratory animal to evaluate their anxiolytic activity. As a typical compound of the invention, R(+)-4-Amino-N-(3-quinuclidinyl)-5-chloro-2-methoxy benzamide dihydrochloride (R(+)-4-Amino-N-(1-azabicyclo[2.2.2]oct-3-yl)-5-chloro-2-methoxybenzamide dihydrochloride), the compound of Example 14, was investigated for its anxiolytic activity, which was compared with that of the racemate (unresolved product of Example 2) and the corresponding enantiomer of absolute configuration S (product of Comparison Example 1).
# The method used in this example was that described by Crawley and Goodwin (Pharm. Biochem. Behavior (1980) 13, 167-170), where aspects of behaviour of the mouse are compared in a lit zone and a dark zone of a two-compartment box.
# [2] = tested on: Naive male albino BKW mice; assay: Anti-anxiety test (light/dark two-compartment box, method of Costall et al); format: in vivo; details: 40 min pretreatment, n = 5
# Procedure: as §1
# Naive male albino BKW mice, 25-30g, were used in all experiments. 10 mice were normally housed in each cage and given free access to food and water. The mice were kept on a 12h light and 12h dark cycle with lights off at 8.00am and on at 8.00pm.
# The apparatus used for the detection of changes in anxiety consisted of an open topped box (45 x 27 x 27cm high) one third painted black and illuminated under a dim red light (1 x 60W) and partitioned from the remainder of the box which was painted white and brightly illuminated with a 100W light source located 17cm above the box. Access between these areas was enabled by means of a 7.5 x 7.5cm opening located at floor level in the centre of the partition. The floor area was lined into 9cm squares. The test was conducted between 13.00 and 18.00h in a quiet, darkened room illuminated with red light only. Animals were thus taken in a dark container from a dark holding room to the dark testing room.
# Animals that had received drug or vehicle injections were placed individually into the centre of the white area and their behaviour observed over a 5 min period by remote video recording.
# Animals were used in treatment groups of 5 and vehicle controls were run on each day of testing. Results were anlysed using Single-Factor Analysis of Variance followed by Dunnett's procedure for comparing all treatments with control.
# Compounds of Example 14 and Comparison Example 1 were dissolved in minimum HCI made up to volume with distilled water. Doses were expressed as the base and were administered as a 40 min pretreatment in a volume of 1 mIi100g body weight. Administration was by the subcutaneous route.
# [3] = Black Section, 0.1 mg/kg subcutaneous
# [4] = Black Section, 1.0 mg/kg subcutaneous
# [5] = Black Section, 10.0 mg/kg subcutaneous
# [6] = White Section, 0.1 mg/kg subcutaneous
# [7] = White Section, 1.0 mg/kg subcutaneous
# [8] = White Section, 10.0 mg/kg subcutaneous
SMILES,Movement activity ([1]; Dark zone),Straightenings ([1]; Dark zone),Movement activity ([1]; Light zone),Straightenings ([1]; Light zone),"Crossings/5min [2, 3]","Rearings/5 min [2, 3]","Crossings/5min [2, 4]","Rearings/5 min [2, 4]","Crossings/5min [2, 5]","Rearings/5 min [2, 5]","Crossings/5min [2, 6]","Rearings/5 min [2, 6]","Crossings/5min [2, 7]","Rearings/5 min [2, 7]","Crossings/5min [2, 8]","Rearings/5 min [2, 8]"
COc1cc(N)c(Cl)cc1C(=O)NC1CN2CCC1CC2 (racemic) [Compound of Example 2],-,-,+,+,,,,,,,,,,,,
"COc1cc(N)c(Cl)cc1C(=O)N[C@H]1CN2CCC1CC2 [Example 14, R(+)-4-Amino-N-(3-quinuclidinyl)-5-chloro-2-methoxybenzamide hydrochloride]",-,-,+,+,14.6±1.5^+++,13.6±1.1^+++,13.6±1.2^+++,13.0±1.4^+++,17.6±1.4^+++,14.7±1.2^+++,52.9±5.0,64.8±6.0,87.4±7.6,82.4±7.4,73.7±7.2,76.2±7.6
"COc1cc(N)c(Cl)cc1C(=O)N[C@@H]1CN2CCC1CC2 [Comparison Example 1, S(-)-4-Amino-N-(3-quinuclidinyl)-5-chloro-2-methoxybenzamide hydrochloride]",ns,ns,ns,ns,39.4±3.0,35.2±3.1,37.6±3.8,38.1±3.2,50.8±5.2,48.3±4.1,23.2±2.3,23.0±2.1,26.8±2.7,21.5±2.0,24.7±2.1,24.0±1.9
